# Laboratory results published in US7939530B2, “Treatment of lymphoma using 10-propargyl-10-deazaaminopterin and gemcitabine” (Sloan-Kettering Institute for Cancer Research, priority 2004, dated 2011).
# “And” between values parts separate entries of the source, which are not always exact repeats. Equal entries are not always repeated.
# Key:
# [1] = tested on: Hs445 (Hodgkin's disease) cell line; experiment: Growth inhibition in vitro (XTT or Alamar blue); assay type: cell-based, human; settings: 5 day continuous drug exposure
# Description: (§1) A PDX preparation prepared in accordance with Example 1 and an MTX preparation were tested for cytotoxicity against a panel of five human lymphoma cell lines. Experiments were performed as described previously. (Sirotnak et al., Cancer Chemother. Pharmacol. 12: 18-25 (1984). In brief, 2.5 to 5×10^3 cells were plated per well in 96-well flat bottom plates. Drug was added in a 0.9% NaCl solution (pH 7.0) over a range of concentrations, and cells were continuously exposed to drug for 5 days. Colorimetric dye (XTT or Alamar blue) was added for an addition period of time (XTT dye, 6 hours, Alamar blue, 24 hours). Each plate was then read on an automated plate reader at 590 nm. The percentage of inhibition was calculated as growth of cells exposed to drug divided by growth of controls (cells incubated with media only). IC50 values were determined as the drug concentrations at which cell growth was inhibited 50% as compared to controls. Experiments were repeated as lest three times. Experiments were also conducted with continuous drug exposures lasting for 3 and 4 days with results similar to the 5 day results.
# [2] = tested on: RL (Transformed follicular) cell line; experiment: Growth inhibition in vitro (XTT or Alamar blue); assay type: cell-based, human; settings: 5 day continuous drug exposure
# Description: as §1
# [3] = tested on: Raji (Burkitt's) cell line; experiment: Growth inhibition in vitro (XTT or Alamar blue); assay type: cell-based, human; settings: 5 day continuous drug exposure
# Description: as §1
# [4] = tested on: human HT (diffuse large B cell) non-Hodgkin's lymphoma xenografts; experiment: Subcutaneous lymphoma xenograft treatment; assay type: in vivo
# From the text: (§2) In order to study the effects of PDX on lymphoma growth in vivo, subcutaneous transplantation models in NOD/SCID mice were generated using three established human lymphoma cell line representative of aggressive transformed FL (RL) and de novo extranodal DLBCL (HT; SKI-DLCL-1) histologies. Six to eight week old non-obsese diabetic severe combined immunodeficient (NOD/SCID) mice (Jackson Laboratories, Bar Harbor, Me.) were sub-lethally irradiated with […] from a gamma source and inoculated with 10×10^6 lymphoma cells via a subcutaneous route. When tumor volumes approached 100 mm^3, mice were divided into three groups, averaging 3-8 mice per group. Mice were treated with normal saline or the maximum tolerated dose (MTD) of MTX (40 mg/kg) or PDX (60 mg/kg) via an intraperitoneal route twice weekly for two weeks (four total doses). […] (Sirotnak, et al., Cancer Chemother. Pharmacol. 12: 26-30 (1984); Sirotnak et al., Cancer Chemother. Pharmacol. 42: 313-318 (1998).
# (§3) Engraftment rates in this experiment ranged from 80 to 90%. Palpable tumors formed under the skin approximately 7-10 days after inoculation and were readily measurable with calipers. Mice with subcutaneous lymphoma growths survived an average of 40-50 days after inoculation.
# [5] = tested on: human RL (transformed follicular) non-Hodgkin's lymphoma xenografts; experiment: Subcutaneous lymphoma xenograft treatment; assay type: in vivo; settings: MTX 40 mg/kg
# From the text: as §2, §3
# [6] = tested on: human SKI-DLCL-1 (de novo diffuse large B cell) non-Hodgkin's lymphoma xenografts; experiment: Subcutaneous lymphoma xenograft treatment; assay type: in vivo; settings: MTX 40 mg/kg
# From the text: as §2, §3
# [7] = MTX 40 mg/kg, PDX 60 mg/kg ip twice weekly for two weeks
# [8] = PDX 60 mg/kg ip twice weekly for two weeks
compound,measurement,setting,value
"C#CCC(Cc1cnc2nc(N)nc(N)c2n1)c1ccc(C(=O)N[C@@H](CCC(=O)O)C(=O)O)cc1 (stereo partly shown) [PDX, 10-Propargyl-10-deazaminopterin]",IC50,[1],1.6 ± 0.8 nM
same,IC50,[2],23 ± 2 nM
same,IC50,[3],2 ± 0.3 nM
same,Complete Regression (no/total),"[4]; MTX 40 mg/kg, PDX 60 mg/kg",8 of 9 and 8/9
same,complete tumor regression (% of mice),"[4]; MTX 40 mg/kg, PDX 60 mg/kg",89%
same,Avg change in Tumor Volume (mm^3 ± SE),[4]; [7],−95 ± 0.8 mm^3
same,Weight Change (%),[4]; [7],−8.9%
same,Avg Tumor Diameter (mm ± SE),"[4]; MTX 40 mg/kg, PDX 60 mg/kg, at the nadir of tumor regression",0.5 mm and 0.5 ± 0.3 mm
same,Tumor Regression (%),"[4]; PDX 60 mg/kg, average tumor regression",99%
same,Complete Regression (no/total),[5]; PDX 60 mg/kg,5 of 9 and 5/9
same,tumor regressions (% of mice),[5]; PDX 60 mg/kg,57%
same,Avg Tumor Diameter (mm ± SE),[5]; [8],2.7 ± 1.1 mm
same,Avg change in Tumor Volume (mm^3 ± SE),[5]; [8],−46 ± 34 mm^3
same,Weight Change (%),[5]; [8],−11.1%
same,Complete Regression (no/total),[6]; PDX 60 mg/kg,3 of 10 and 3/10
same,tumor regressions / complete remissions (% of mice),[6]; PDX 60 mg/kg,30%
same,Avg Tumor Diameter (mm ± SE),[6]; [8],3.5 ± 0.7 mm
same,Avg change in Tumor Volume (mm^3 ± SE),[6]; [8],−81 ± 16 mm^3
same,Weight Change (%),[6]; [8],−1.2%
